≈ marks a conversion by molar mass, not a printed value. Read-outs that look alike come from different tables or passages of the source.
Experiments:
APAE001 (ATCC27853) = assay: MIC broth microdilution, APAE001; format: cell-based, P. aeruginosa; details: Pseudomonas aeruginosa, ATCC27853, read-out: MIC APAE001, APAE001 (ATCC27853)
Procedure, shortened: (§1)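 Growth inhibition was scored by CLSI broth microdilution using cation-adjusted Mueller-Hinton broth and a final inoculum between 3×10^5 and 7×10^5 CFU/mL, incubated 18-24 hours at 35° C.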

[1] = tested on: AABA1060 (clinical isolate of Acinetobacter baumannii); assay: MIC broth microdilution, AABA1060; format: cell-based; details: Acinetobacter baumannii, read-out: MIC AABA1060
Procedure, shortened: as §1

AECO001 (ATCC25922) = assay: MIC broth microdilution, AECO001; format: cell-based, E. coli; details: Escherichia coli
Procedure, shortened: as §1

[2] = tested on: APAE006 in the presence of 8 micrograms per milliliter of polymyxin B nonapeptide; format: cell-based, P. aeruginosa; details: APAE006 with 8 micrograms per milliliter polymyxin B nonapeptide
Procedure, shortened: (§2)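 Inocula prepared from 0.5 McFarland suspensions (final 3×10^5–7×10^5 CFU/mL) were added to 2-fold drug dilution series in cation-adjusted Mueller-Hinton broth. Plates stood 18-24 hours at 35° C. under ambient air.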

[3] = tested on: ASAU001 (laboratory strain of S. aureus, ATCC29213); assay: MIC broth microdilution, ASAU001; format: cell-based; details: Staphylococcus aureus, ATCC29213, read-out: MIC ASAU001
Procedure, shortened: as §1

[4] = tested on: APAE006 (strain of P. aeruginosa in which all efflux pumps are inactivated); assay: microbe, parasite or virus in culture; format: cell-based; details: Pseudomonas aeruginosa, read-out: MIC APAE006, APAE006, all efflux pumps inactivated
Procedure, shortened: as §2

[5] = tested on: AECO063 (ATCC25922 bearing an acrAB mutation); assay: microbe, parasite or virus in culture; format: cell-based, E. coli; details: Escherichia coli, ATCC25922, read-out: MIC AECO063
Procedure, shortened: as §1

[6] = ATCC25922, read-out: MIC AECO001
[7] = ATCC25922, read-out: MIC AECO001 HSA AGP

SMILES	MIC (APAE001 (ATCC27853)) [µg/mL]	MIC [1] [µg/mL]	MIC (AECO001 (ATCC25922); [6]) [µg/mL]	MIC (AECO001 (ATCC25922); [7]) [µg/mL]	MIC APAE006 + PMBN [2]	MIC [3] [µg/mL]	MIC [4] [µg/mL]	MIC [5] [µg/mL]
CC(C)(O)[C@H](NC(=O)c1ccc(C#CC#CCC2CCCC2)cc1)C(=O)NO [Example 91-20]	2 to 16 (≈ 5.23 to 41.8 µM)	2 to 16 (≈ 5.23 to 41.8 µM)	< 2	2 to 16 (≈ 5.23 to 41.8 µM)	A (MIC's of 2.0 μg/mL or less = A)	16 to 64 (≈ 41.8 to 167 µM)	2 to 16 (≈ 5.23 to 41.8 µM)	< 2
CC(C)CCC#CC#Cc1ccc(C(=O)N[C@H](C(=O)NO)C(C)(C)N)cc1 [Example 91-21]	2 to 16 (≈ 5.41 to 43.3 µM)	2 to 16 (≈ 5.41 to 43.3 µM)	< 2	2 to 16 (≈ 5.41 to 43.3 µM)	A (MIC's of 2.0 μg/mL or less = A)	2 to 16 (≈ 5.41 to 43.3 µM)	< 2	< 2
CC(C)CC#CC#Cc1ccc(C(=O)N[C@H](C(=O)NO)C(C)(C)N)cc1 [Example 91-22]	2 to 16 (≈ 5.63 to 45 µM)	2 to 16 (≈ 5.63 to 45 µM)	< 2	2 to 16 (≈ 5.63 to 45 µM)	A (MIC's of 2.0 μg/mL or less = A)	2 to 16 (≈ 5.63 to 45 µM)	< 2	< 2
CC(C)(N)[C@H](NC(=O)c1ccc(C#CC#CCC2CCCC2)cc1)C(=O)NO [Example 91-23]	2 to 16 (≈ 5.24 to 41.9 µM)	2 to 16 (≈ 5.24 to 41.9 µM)	< 2	2 to 16 (≈ 5.24 to 41.9 µM)	A (MIC's of 2.0 μg/mL or less = A)	2 to 16 (≈ 5.24 to 41.9 µM)	< 2	< 2
C[C@@H](N)[C@H](NC(=O)c1ccc(C#CC#CCC2CCCC2)cc1)C(=O)NO [Example 91-25]	16 to 64 (≈ 43.5 to 174 µM)	16 to 64 (≈ 43.5 to 174 µM)	16 to 64 (≈ 43.5 to 174 µM)	16 to 64 (≈ 43.5 to 174 µM)	B (MIC's of greater than 2.0 μg/mL to 16.0 μg/mL = B)	16 to 64 (≈ 43.5 to 174 µM)	2 to 16 (≈ 5.44 to 43.5 µM)	16 to 64 (≈ 43.5 to 174 µM)
CC(C)CCC#CC#Cc1ccc(C(=O)N[C@H](C(=O)NO)[C@@H](C)N)cc1 [Example 91-28]	2 to 16 (≈ 5.63 to 45 µM)	2 to 16 (≈ 5.63 to 45 µM)	< 2	2 to 16 (≈ 5.63 to 45 µM)	A (MIC's of 2.0 μg/mL or less = A)	2 to 16 (≈ 5.63 to 45 µM)	< 2	< 2
C[C@@H](N)[C@H](NC(=O)c1ccc(C#CC#CC(C)(C)O)cc1)C(=O)NO [Example 91-30]	< 2	16 to 64 (≈ 46.6 to 186 µM)	16 to 64 (≈ 46.6 to 186 µM)	16 to 64 (≈ 46.6 to 186 µM)	A (MIC's of 2.0 μg/mL or less = A)	16 to 64 (≈ 46.6 to 186 µM)	< 2	2 to 16 (≈ 5.82 to 46.6 µM)
C[C@H](C#CC#Cc1ccc(C(=O)N[C@H](C(=O)NO)[C@@H](C)N)cc1)N1CCOCC1 [Example 92-1, N-((2S,3R)-3-amino-1-(hydroxyamino)-1-oxobutan-2-yl)-4-((R)-5-morpholinohexa-1,3-diynyl)benzamide]	2 to 16 (≈ 5.02 to 40.2 µM)	16 to 64 (≈ 40.2 to 161 µM)	2 to 16 (≈ 5.02 to 40.2 µM)	16 to 64 (≈ 40.2 to 161 µM)	A (MIC's of 2.0 μg/mL or less = A)	16 to 64 (≈ 40.2 to 161 µM)	< 2	2 to 16 (≈ 5.02 to 40.2 µM)
C[C@@H](N)[C@H](NC(=O)c1ccc(C#CC#C[C@H](C)N2CCOCC2)cc1)C(=O)NO [Example 92-2, N-((2S,3R)-3-amino-1-(hydroxyamino)-1-oxobutan-2-yl)-4-((S)-5-morpholinohexa-1,3-diynyl)benzamide]	16 to 64 (≈ 40.2 to 161 µM)	16 to 64 (≈ 40.2 to 161 µM)	16 to 64 (≈ 40.2 to 161 µM)	16 to 64 (≈ 40.2 to 161 µM)	B (MIC's of greater than 2.0 μg/mL to 16.0 μg/mL = B)	16 to 64 (≈ 40.2 to 161 µM)	2 to 16 (≈ 5.02 to 40.2 µM)	2 to 16 (≈ 5.02 to 40.2 µM)
C[C@@H](N)[C@H](NC(=O)c1ccc(C#CC#Cc2ccc(NS(C)(=O)=O)cc2)cc1)C(=O)NO [Example 93-1, N-((2S,3R)-3-amino-1-(hydroxyamino)-1-oxobutan-2-yl)-4-((4-(methylsulfonamido)phenyl)buta-1,3-diynyl)benzamide]	< 2	< 2	< 2	16 to 64 (≈ 35.2 to 141 µM)	A (MIC's of 2.0 μg/mL or less = A)	16 to 64 (≈ 35.2 to 141 µM)	< 2	< 2
O=C(NC(C(=O)NO)C1(O)CC1)c1ccc(C#CC#CC2CC2)cc1 (stereo not drawn) [Example 94-1, 4-(cyclopropylbuta-1,3-diynyl)-N-(2-(hydroxyamino)-1-(1-hydroxycyclopropyl)-2-oxoethyl)benzamide]	< 2	2 to 16 (≈ 5.91 to 47.3 µM)	< 2	2 to 16 (≈ 5.91 to 47.3 µM)	A (MIC's of 2.0 μg/mL or less = A)	16 to 64 (≈ 47.3 to 189 µM)	< 2	< 2
CC(C)(N)[C@H](NC(=O)c1ccc(C#C/C=C/c2ccc(CNC3CC3)cc2)cc1)C(=O)NO [Example 102-6]	< 2	2 to 16 (≈ 4.48 to 35.8 µM)	< 2	2 to 16 (≈ 4.48 to 35.8 µM)	A (MIC's of 2.0 μg/mL or less = A)	16 to 64 (≈ 35.8 to 143 µM)	< 2	< 2
